Test results reported in the supplement of paper PMC10307832.

What was measured:
Assay in all cases: relative viability (nuclei count vs DMSO), 5 days (fraction); higher = more cells survive
PC-14 = tested on: PC-14
In short: (§1)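 For relative viability, nuclei counts in treated wells were divided by those in vehicle wells. Lung cancer cell lines had been pin-tool dosed in 1536-well plates the day after seeding and cultured for 5 days, then fixed and stained in one step (final 0.05% Triton X-100, 1% formaldehyde, 1 ug/ml Hoechst) and imaged at 4×. Doses were one drug alone or a fixed anchor-drug dose plus five library-drug doses (not always all listed) in √10 steps, and values are duplicate-plate medians.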

NCI-H838 = tested on: NCI-H838
In short: as §1

HCC-44 = tested on: HCC-44
In short: as §1

NCI-H650 = tested on: NCI-H650
In short: as §1

LC-2-ad = tested on: LC-2-ad
In short: as §1

NCI-H1355 = tested on: NCI-H1355
In short: as §1

NCI-H1915 = tested on: NCI-H1915
In short: as §1

HCC-15 = tested on: HCC-15
In short: as §1

NCI-H2347 = tested on: NCI-H2347
In short: as §1

ABC-1 = tested on: ABC-1
In short: as §1

LU99A = tested on: LU99A
In short: as §1

NCI-H2023 = tested on: NCI-H2023
In short: as §1

HOP-62 = tested on: HOP-62
In short: as §1

NCI-H2085 = tested on: NCI-H2085
In short: as §1

SW 1573 = tested on: SW 1573
In short: as §1

NCI-H1651 = tested on: NCI-H1651
In short: as §1

COR-L23 = tested on: COR-L23
In short: as §1

NCI-H1993 = tested on: NCI-H1993
In short: as §1

UMC-11 = tested on: UMC-11
In short: as §1

NCI-H2126 = tested on: NCI-H2126
In short: as §1

HARA = tested on: HARA
In short: as §1

EPLC-272H = tested on: EPLC-272H
In short: as §1

Structure (SMILES): CC(=O)O[C@@]12CO[C@@H]1C[C@H](O)[C@@]1(C)C(=O)[C@H](O)C3=C(C)[C@@H](OC(=O)[C@H](O)[C@@H](NC(=O)OC(C)(C)C)c4ccccc4)C[C@@](O)([C@@H](OC(=O)c4ccccc4)[C@H]21)C3(C)C [Docetaxel] + O=C(c1cc(Cc2n[nH]c(=O)c3ccccc23)ccc1F)N1CCN(C(=O)C2CC2)CC1 [Olaparib] (partner 8 µM)
- relative viability (PC-14; first compound 0.0002 µM): 0.276
- relative viability (PC-14; first compound 0.000632 µM): 0.164
- relative viability (PC-14; first compound 0.002 µM): 0.0642
- relative viability (PC-14; first compound 0.006325 µM): 0.0438
- relative viability (PC-14; first compound 0.02 µM): 0.0274
- relative viability (NCI-H838; first compound 0.0002 µM): 0.716
- relative viability (NCI-H838; first compound 0.000632 µM): 0.368
- relative viability (NCI-H838; first compound 0.002 µM): 0.268
- relative viability (NCI-H838; first compound 0.006325 µM): 0.137
- relative viability (NCI-H838; first compound 0.02 µM): 0.106
- relative viability (HCC-44; first compound 0.0002 µM): 0.978
- relative viability (HCC-44; first compound 0.000632 µM): 0.954
- relative viability (HCC-44; first compound 0.002 µM): 0.908
- relative viability (HCC-44; first compound 0.006325 µM): 0.682
- relative viability (HCC-44; first compound 0.02 µM): 0.616
- relative viability (NCI-H650; first compound 0.0002 µM): 0.361
- relative viability (NCI-H650; first compound 0.000632 µM): 0.292
- relative viability (NCI-H650; first compound 0.002 µM): 0.192
- relative viability (NCI-H650; first compound 0.006325 µM): 0.189
- relative viability (NCI-H650; first compound 0.02 µM): 0.148
- relative viability (LC-2-ad; first compound 0.0002 µM): 0.623
- relative viability (LC-2-ad; first compound 0.000632 µM): 0.411
- relative viability (LC-2-ad; first compound 0.002 µM): 0.304
- relative viability (LC-2-ad; first compound 0.02 µM): 0.191
- relative viability (NCI-H1355; first compound 0.0002 µM): 0.732
- relative viability (NCI-H1355; first compound 0.000632 µM): 0.533
- relative viability (NCI-H1355; first compound 0.002 µM): 0.353
- relative viability (NCI-H1355; first compound 0.006325 µM): 0.203
- relative viability (NCI-H1355; first compound 0.02 µM): 0.164
- relative viability (NCI-H1915; first compound 0.0002 µM): 0.278
- relative viability (NCI-H1915; first compound 0.000632 µM): 0.256
- relative viability (NCI-H1915; first compound 0.002 µM): 0.179
- relative viability (NCI-H1915; first compound 0.006325 µM): 0.144
- relative viability (NCI-H1915; first compound 0.02 µM): 0.0963
- relative viability (HCC-15; first compound 0.0002 µM): 0.72
- relative viability (HCC-15; first compound 0.000632 µM): 0.382
- relative viability (HCC-15; first compound 0.002 µM): 0.281
- relative viability (HCC-15; first compound 0.02 µM): 0.175
- relative viability (NCI-H2347; first compound 0.0002 µM): 0.613
- relative viability (NCI-H2347; first compound 0.000632 µM): 0.566
- relative viability (NCI-H2347; first compound 0.002 µM): 0.557
- relative viability (NCI-H2347; first compound 0.006325 µM): 0.505
- relative viability (NCI-H2347; first compound 0.02 µM): 0.388
- relative viability (ABC-1; first compound 0.0002 µM): 0.649
- relative viability (ABC-1; first compound 0.000632 µM): 0.827
- relative viability (ABC-1; first compound 0.002 µM): 0.564
- relative viability (ABC-1; first compound 0.006325 µM): 0.535
- relative viability (ABC-1; first compound 0.02 µM): 0.338
- relative viability (LU99A; first compound 0.0002 µM): 0.259
- relative viability (LU99A; first compound 0.000632 µM): 0.201
- relative viability (LU99A; first compound 0.002 µM): 0.209
- relative viability (LU99A; first compound 0.006325 µM): 0.23
- relative viability (LU99A; first compound 0.02 µM): 0.163
- relative viability (NCI-H2023; first compound 0.0002 µM): 0.437
- relative viability (NCI-H2023; first compound 0.000632 µM): 0.313
- relative viability (NCI-H2023; first compound 0.002 µM): 0.114
- relative viability (NCI-H2023; first compound 0.006325 µM): 0.114
- relative viability (NCI-H2023; first compound 0.02 µM): 0.0533
- relative viability (HOP-62; first compound 0.0002 µM): 0.336
- relative viability (HOP-62; first compound 0.000632 µM): 0.317
- relative viability (HOP-62; first compound 0.002 µM): 0.129
- relative viability (HOP-62; first compound 0.02 µM): 0.12
- relative viability (NCI-H2085; first compound 0.0002 µM): 0.725
- relative viability (NCI-H2085; first compound 0.000632 µM): 0.826
- relative viability (NCI-H2085; first compound 0.002 µM): 0.747
- relative viability (NCI-H2085; first compound 0.006325 µM): 0.431
- relative viability (NCI-H2085; first compound 0.02 µM): 0.298
- relative viability (SW 1573; first compound 0.0002 µM): 0.304
- relative viability (SW 1573; first compound 0.000632 µM): 0.223
- relative viability (SW 1573; first compound 0.002 µM): 0.199
- relative viability (SW 1573; first compound 0.006325 µM): 0.162
- relative viability (SW 1573; first compound 0.02 µM): 0.119
- relative viability (NCI-H1651; first compound 0.0002 µM): 0.188
- relative viability (NCI-H1651; first compound 0.000632 µM): 0.206
- relative viability (NCI-H1651; first compound 0.002 µM): 0.177
- relative viability (NCI-H1651; first compound 0.006325 µM): 0.137
- relative viability (COR-L23; first compound 0.0002 µM): 0.307
- relative viability (COR-L23; first compound 0.000632 µM): 0.312
- relative viability (COR-L23; first compound 0.002 µM): 0.161
- relative viability (COR-L23; first compound 0.006325 µM): 0.134
- relative viability (COR-L23; first compound 0.02 µM): 0.0881
- relative viability (NCI-H1993; first compound 0.0002 µM): 0.929
- relative viability (NCI-H1993; first compound 0.000632 µM): 0.918
- relative viability (NCI-H1993; first compound 0.002 µM): 0.793
- relative viability (NCI-H1993; first compound 0.006325 µM): 0.531
- relative viability (NCI-H1993; first compound 0.02 µM): 0.409
- relative viability (UMC-11; first compound 0.0002 µM): 0.371
- relative viability (UMC-11; first compound 0.000632 µM): 0.352
- relative viability (UMC-11; first compound 0.002 µM): 0.221
- relative viability (UMC-11; first compound 0.006325 µM): 0.289
- relative viability (UMC-11; first compound 0.02 µM): 0.229
- relative viability (NCI-H2126; first compound 0.0002 µM): 0.887
- relative viability (NCI-H2126; first compound 0.000632 µM): 0.861
- relative viability (NCI-H2126; first compound 0.002 µM): 0.615
- relative viability (NCI-H2126; first compound 0.006325 µM): 0.348
- relative viability (HARA; first compound 0.0002 µM): 0.858
- relative viability (HARA; first compound 0.000632 µM): 0.335
- relative viability (HARA; first compound 0.002 µM): 0.161
- relative viability (HARA; first compound 0.006325 µM): 0.21
- relative viability (HARA; first compound 0.02 µM): 0.0824
- relative viability (EPLC-272H; first compound 0.0002 µM): 0.527
- relative viability (EPLC-272H; first compound 0.000632 µM): 0.339
- relative viability (EPLC-272H; first compound 0.002 µM): 0.0991
- relative viability (EPLC-272H; first compound 0.006325 µM): 0.0687
- relative viability (EPLC-272H; first compound 0.02 µM): 0.0452
